Reference: ChEMBL document CHEMBL5465560, “Selectivity Literature for EUbOPEN Chemogenomic Library” (2024)
One block for each compound: values may come before it.

Tests used:
[1] = target: MAP kinase-activated protein kinase 2 (Homo sapiens, UniProt P49137); conditions: at 10 µM
[2] = target: T1, Mitogen-activated protein kinase 15 (Homo sapiens) (UniProt Q8TD08); conditions: at 10 µM
T1 sequence (whole entry): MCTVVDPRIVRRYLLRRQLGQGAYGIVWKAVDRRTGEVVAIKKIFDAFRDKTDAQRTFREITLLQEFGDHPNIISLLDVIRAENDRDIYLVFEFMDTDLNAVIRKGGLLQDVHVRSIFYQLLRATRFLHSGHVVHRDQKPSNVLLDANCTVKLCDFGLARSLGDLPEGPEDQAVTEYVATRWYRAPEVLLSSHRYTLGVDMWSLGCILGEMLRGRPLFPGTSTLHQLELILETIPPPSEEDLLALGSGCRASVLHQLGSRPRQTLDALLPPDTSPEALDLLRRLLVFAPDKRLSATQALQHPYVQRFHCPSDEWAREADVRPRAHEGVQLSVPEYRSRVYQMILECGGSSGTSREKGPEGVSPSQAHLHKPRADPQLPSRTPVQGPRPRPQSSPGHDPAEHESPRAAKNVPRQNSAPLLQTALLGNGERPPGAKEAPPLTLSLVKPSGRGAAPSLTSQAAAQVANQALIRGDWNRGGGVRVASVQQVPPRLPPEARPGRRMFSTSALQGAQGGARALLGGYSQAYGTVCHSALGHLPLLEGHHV

[3] = target: Myosin light chain kinase, smooth muscle (Homo sapiens, UniProt Q15746); experiment: Selectivity interaction (KinomeScan (DiscoverX)) EUB0001049a MYLK; conditions: at 1 µM
[4] = target: Serine/threonine-protein kinase PRP4 homolog (Homo sapiens) (UniProt Q13523); experiment: Selectivity interaction (ActivX KiNativ screen (kinase selectivity in THP-1 cell lysates)) EUB0000639a PRPF4; type: subcellular; conditions: lysate, at 1 µM
[5] = target: T2, Mitogen-activated protein kinase 12 (Homo sapiens) (UniProt P53778); experiment: Selectivity interaction (Kinase panel (Invitrogen)) EUB0000639a MAPK12; conditions: at 200 nM
T2 sequence (whole entry): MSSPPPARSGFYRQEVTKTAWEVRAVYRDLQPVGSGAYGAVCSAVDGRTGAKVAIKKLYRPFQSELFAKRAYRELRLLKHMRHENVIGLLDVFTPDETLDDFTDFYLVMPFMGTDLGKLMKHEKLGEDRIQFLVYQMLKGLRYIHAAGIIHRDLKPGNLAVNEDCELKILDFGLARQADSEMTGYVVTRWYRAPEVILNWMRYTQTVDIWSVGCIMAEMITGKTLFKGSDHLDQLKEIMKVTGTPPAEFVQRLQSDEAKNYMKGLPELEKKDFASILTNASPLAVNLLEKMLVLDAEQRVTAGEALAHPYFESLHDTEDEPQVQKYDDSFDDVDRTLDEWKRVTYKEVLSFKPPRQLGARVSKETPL

[6] = target: Casein kinase II subunit alpha (Homo sapiens, UniProt P68400); experiment: Selectivity interaction (Kinase panel (literature)) EUB0001199aCl CSNK2A1; conditions: at 1 µM
Chain of Casein kinase II subunit alpha (P68400 whole entry, looked up): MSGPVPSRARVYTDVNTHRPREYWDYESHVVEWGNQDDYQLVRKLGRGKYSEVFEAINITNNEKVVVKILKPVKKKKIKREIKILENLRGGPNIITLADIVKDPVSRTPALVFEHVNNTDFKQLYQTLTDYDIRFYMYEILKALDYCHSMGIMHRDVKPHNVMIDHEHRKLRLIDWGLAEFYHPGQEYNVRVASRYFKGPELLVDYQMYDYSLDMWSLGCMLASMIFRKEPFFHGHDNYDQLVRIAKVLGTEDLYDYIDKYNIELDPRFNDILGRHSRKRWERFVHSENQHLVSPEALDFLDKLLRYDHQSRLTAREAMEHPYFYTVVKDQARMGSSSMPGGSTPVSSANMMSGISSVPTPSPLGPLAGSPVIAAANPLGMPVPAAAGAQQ

[7] = target: Serine/threonine-protein kinase pim-2 (Homo sapiens, UniProt Q9P1W9); conditions: at 10 µM
Chain of Serine/threonine-protein kinase pim-2 (Q9P1W9 whole entry, looked up): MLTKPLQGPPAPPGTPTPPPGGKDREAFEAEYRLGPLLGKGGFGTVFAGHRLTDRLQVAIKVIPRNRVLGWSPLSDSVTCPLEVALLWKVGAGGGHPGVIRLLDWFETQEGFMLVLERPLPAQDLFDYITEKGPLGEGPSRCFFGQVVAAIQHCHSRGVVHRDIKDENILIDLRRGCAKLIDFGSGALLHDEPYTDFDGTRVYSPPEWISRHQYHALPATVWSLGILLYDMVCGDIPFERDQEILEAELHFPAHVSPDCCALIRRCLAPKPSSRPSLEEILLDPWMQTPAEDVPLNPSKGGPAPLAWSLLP

[8] = target: T3, Inhibitor of nuclear factor kappa-B kinase subunit epsilon (Homo sapiens) (UniProt Q14164); experiment: Selectivity interaction (ProQinase) EUB0000171b IKBKE
T3 sequence (whole entry): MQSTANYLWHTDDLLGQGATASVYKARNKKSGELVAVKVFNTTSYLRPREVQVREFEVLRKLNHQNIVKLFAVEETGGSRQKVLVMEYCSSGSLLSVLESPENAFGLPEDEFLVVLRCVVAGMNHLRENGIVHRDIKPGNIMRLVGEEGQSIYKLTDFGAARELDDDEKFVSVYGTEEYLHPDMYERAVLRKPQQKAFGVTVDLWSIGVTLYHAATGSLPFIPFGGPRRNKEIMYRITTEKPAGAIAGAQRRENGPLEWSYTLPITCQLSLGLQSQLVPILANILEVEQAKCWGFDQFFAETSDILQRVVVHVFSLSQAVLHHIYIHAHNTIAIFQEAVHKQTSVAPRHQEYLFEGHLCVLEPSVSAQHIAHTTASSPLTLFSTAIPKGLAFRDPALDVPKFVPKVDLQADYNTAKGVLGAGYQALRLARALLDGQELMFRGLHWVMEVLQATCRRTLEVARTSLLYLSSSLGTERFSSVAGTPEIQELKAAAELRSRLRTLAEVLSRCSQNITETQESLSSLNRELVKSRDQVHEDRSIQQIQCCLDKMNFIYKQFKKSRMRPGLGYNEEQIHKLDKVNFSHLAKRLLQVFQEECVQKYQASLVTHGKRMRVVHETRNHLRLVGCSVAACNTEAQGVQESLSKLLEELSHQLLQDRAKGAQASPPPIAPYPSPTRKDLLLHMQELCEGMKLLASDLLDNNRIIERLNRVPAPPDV

[9] = target: Ephrin type-A receptor 2 (Homo sapiens) (UniProt P29317); experiment: Selectivity interaction (KinomeScan (DiscoverX)) EUB0000092b EPHA2; conditions: at 10 µM
Chain of Ephrin type-A receptor 2 (Homo sapiens) (P29317 whole entry): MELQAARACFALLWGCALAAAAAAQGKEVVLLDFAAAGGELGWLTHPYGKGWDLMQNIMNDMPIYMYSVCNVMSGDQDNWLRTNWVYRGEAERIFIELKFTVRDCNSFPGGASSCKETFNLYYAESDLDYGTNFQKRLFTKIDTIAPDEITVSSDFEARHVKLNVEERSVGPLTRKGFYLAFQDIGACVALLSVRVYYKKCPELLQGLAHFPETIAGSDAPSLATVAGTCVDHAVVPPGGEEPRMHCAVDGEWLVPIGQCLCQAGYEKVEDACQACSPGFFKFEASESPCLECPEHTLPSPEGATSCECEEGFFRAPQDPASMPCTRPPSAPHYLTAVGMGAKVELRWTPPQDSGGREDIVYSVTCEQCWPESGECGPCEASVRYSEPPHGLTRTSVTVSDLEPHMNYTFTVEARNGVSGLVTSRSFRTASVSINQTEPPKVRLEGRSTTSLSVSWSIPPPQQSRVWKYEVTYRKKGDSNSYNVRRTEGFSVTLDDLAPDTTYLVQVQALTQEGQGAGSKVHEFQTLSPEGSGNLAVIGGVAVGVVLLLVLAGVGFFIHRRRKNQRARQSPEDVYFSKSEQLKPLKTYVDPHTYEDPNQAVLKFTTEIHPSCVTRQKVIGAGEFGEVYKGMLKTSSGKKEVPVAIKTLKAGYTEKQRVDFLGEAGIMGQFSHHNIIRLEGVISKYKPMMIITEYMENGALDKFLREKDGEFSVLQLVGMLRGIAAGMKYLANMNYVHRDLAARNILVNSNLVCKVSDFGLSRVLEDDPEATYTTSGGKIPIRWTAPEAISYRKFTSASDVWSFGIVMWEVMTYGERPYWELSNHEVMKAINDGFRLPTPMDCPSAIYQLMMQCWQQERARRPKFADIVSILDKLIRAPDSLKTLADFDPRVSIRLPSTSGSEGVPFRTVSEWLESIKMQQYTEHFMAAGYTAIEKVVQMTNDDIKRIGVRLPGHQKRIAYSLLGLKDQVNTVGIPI

[10] = target: Mitogen-activated protein kinase kinase kinase 4 (Homo sapiens) (UniProt Q9Y6R4); experiment: Selectivity interaction (KinomeScan (DiscoverX)) EUB0000092b MAP3K4; conditions: at 10 µM
Chain of Mitogen-activated protein kinase kinase kinase 4 (Homo sapiens) (Q9Y6R4 whole entry): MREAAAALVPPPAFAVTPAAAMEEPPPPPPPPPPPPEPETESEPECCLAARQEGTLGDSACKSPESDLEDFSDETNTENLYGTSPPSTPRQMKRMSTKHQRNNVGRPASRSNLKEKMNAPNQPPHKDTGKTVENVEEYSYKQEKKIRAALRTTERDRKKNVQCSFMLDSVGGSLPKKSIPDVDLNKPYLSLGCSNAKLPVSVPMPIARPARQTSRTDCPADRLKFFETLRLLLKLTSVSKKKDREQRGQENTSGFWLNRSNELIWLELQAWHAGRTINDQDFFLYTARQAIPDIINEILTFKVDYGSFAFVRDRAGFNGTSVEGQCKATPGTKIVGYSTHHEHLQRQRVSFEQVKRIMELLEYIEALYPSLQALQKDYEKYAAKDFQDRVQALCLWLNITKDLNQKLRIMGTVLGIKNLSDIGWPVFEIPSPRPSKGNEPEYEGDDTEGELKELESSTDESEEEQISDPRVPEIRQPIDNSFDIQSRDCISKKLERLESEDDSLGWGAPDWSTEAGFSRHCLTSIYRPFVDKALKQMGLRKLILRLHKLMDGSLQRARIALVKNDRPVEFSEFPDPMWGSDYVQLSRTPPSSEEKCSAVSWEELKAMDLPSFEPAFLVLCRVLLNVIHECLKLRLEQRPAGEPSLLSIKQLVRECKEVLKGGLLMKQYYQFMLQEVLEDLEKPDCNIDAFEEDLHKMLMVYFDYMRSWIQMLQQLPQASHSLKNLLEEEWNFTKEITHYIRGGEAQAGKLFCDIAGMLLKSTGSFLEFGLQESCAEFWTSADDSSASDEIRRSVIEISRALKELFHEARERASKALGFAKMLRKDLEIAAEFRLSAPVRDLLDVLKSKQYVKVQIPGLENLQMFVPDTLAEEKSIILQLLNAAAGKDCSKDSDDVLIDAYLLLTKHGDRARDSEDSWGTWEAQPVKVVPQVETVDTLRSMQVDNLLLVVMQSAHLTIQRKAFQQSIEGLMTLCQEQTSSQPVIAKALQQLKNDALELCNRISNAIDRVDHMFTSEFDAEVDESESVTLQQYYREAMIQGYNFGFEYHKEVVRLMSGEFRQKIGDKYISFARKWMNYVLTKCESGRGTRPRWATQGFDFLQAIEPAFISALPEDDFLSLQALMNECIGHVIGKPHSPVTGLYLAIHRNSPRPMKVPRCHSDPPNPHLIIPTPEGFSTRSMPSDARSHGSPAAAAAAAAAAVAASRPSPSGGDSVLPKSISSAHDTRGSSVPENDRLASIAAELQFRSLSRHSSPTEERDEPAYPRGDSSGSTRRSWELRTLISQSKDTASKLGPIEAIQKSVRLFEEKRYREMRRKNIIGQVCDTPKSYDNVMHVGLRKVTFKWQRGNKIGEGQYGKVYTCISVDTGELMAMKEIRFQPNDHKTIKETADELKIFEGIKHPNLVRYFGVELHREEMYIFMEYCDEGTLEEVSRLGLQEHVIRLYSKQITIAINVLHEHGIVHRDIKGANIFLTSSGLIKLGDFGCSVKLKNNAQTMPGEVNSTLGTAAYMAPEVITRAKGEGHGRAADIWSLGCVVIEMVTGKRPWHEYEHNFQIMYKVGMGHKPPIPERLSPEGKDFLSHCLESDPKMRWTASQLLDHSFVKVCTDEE

[11] = target: 5'-AMP-activated protein kinase catalytic subunit alpha-1 (Homo sapiens, UniProt Q13131); experiment: Selectivity interaction (Upstate Kinase Profiler service (Millipore)) EUB0000056c PRKAA1; conditions: at 1 µM
Chain of 5'-AMP-activated protein kinase catalytic subunit alpha-1 (Q13131 whole entry, looked up): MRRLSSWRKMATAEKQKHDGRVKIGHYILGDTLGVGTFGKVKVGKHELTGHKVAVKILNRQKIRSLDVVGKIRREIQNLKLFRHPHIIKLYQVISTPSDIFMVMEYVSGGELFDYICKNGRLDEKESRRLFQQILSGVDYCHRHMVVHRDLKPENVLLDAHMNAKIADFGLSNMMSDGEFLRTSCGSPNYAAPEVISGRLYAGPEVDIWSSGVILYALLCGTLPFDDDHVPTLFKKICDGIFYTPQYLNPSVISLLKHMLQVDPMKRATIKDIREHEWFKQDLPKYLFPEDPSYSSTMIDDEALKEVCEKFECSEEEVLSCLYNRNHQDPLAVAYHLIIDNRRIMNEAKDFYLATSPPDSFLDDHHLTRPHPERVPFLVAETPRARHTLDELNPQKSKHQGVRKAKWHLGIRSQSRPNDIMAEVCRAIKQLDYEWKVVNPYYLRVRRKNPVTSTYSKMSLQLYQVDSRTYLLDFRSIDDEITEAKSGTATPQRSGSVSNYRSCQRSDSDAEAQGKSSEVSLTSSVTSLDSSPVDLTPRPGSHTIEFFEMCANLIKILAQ

[12] = target: Tyrosine-protein kinase receptor UFO (Homo sapiens) (UniProt P30530); experiment: Selectivity interaction (KinomeScan (DiscoverX)) EUB0000655a AXL; conditions: at 10 µM
Chain of Tyrosine-protein kinase receptor UFO (Homo sapiens) (P30530 whole entry): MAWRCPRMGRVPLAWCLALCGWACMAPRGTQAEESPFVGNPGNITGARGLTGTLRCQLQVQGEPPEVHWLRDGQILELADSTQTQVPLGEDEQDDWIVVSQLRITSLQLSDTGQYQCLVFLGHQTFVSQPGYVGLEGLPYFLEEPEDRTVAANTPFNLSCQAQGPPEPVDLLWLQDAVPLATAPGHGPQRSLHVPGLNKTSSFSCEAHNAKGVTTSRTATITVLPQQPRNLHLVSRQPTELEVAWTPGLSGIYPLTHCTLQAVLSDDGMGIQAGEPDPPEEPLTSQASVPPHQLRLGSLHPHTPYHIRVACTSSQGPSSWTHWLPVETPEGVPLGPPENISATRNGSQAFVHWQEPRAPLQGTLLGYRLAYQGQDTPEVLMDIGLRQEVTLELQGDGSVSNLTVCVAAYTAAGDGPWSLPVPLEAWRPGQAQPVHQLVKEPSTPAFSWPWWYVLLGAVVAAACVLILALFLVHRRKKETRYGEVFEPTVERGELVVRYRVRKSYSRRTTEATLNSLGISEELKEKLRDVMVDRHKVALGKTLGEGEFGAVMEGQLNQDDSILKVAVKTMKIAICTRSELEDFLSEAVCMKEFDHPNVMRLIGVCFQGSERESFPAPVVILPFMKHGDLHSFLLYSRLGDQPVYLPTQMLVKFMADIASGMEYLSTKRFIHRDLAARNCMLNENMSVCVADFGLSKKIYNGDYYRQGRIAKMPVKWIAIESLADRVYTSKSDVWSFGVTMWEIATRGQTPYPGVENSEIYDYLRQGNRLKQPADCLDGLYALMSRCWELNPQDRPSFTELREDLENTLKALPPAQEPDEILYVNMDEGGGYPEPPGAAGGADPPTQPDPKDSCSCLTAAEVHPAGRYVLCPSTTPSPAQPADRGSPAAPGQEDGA

Focal adhesion kinase 1 = Focal adhesion kinase 1 (Homo sapiens, UniProt Q05397); experiment: Selectivity interaction (ActivX KiNativ screen (ex vivo kinase selectivity in human PBMCs)) EUB0001619a PTK2; type: cell-based; conditions: PBMC, at 1 µM
[13] = system: eIF-2-alpha kinase GCN2 (Homo sapiens), Q9P2K8 [S808G]; experiment: Selectivity interaction (KinomeScan (DiscoverX)) EUB0000666a EIF2AK4; conditions: at 10 µM

SMILES: Cc1cc([C@@H](C)Nc2ccccc2C(=O)O)c2nc(N3CCOCC3)cc(=O)n2c1 [AZD-6482]
% of control [1]: 66%
% of control [2]: 100%

SMILES: COc1cc(Nc2nc(C)cc(-c3cnn4nc(OC)ccc34)n2)cc(C(F)(F)F)c1
% of control [3]: 58%

% of inhibition [4]: 64.7%
% of inhibition [5]: 7.12%
SMILES: CC[C@@H]1[C@H](F)C(=O)N[C@@H]1COc1nccc2cc(C(N)=O)c(OC)cc12 [ZIMLOVISERTIB]

% of inhibition [6]: -3%
SMILES: CN1Cc2nccc(-c3cn(C)nc3-c3ccc(F)cc3)c2C1=O

% of control [7]: 100%
SMILES: CCN(CC)CCCCNc1ncc2cc(-c3cc(OC)cc(OC)c3)c(NC(=O)NC(C)(C)C)nc2n1

% of control ([8]; at 1 µM): 88%
% of control ([8]; at 5 µM): 70%
SMILES: C=CC(=O)Nc1cccc(C(=O)Nc2ccc(Nc3cc(-c4[nH]c(SC)nc4C)ccn3)cc2)c1

SMILES: CCC(=O)N1CCN(c2ccc(-n3c(=O)ccc4cnc5ccc(-c6cnc7ccccc7c6)cc5c43)cc2C(F)(F)F)CC1
% of control [9]: 59%
% of control [10]: 47%

% of inhibition [11]: 77%
SMILES: Cc1ccc(-c2ccc3c(ccc4sc5c(c43)NC[C@@H](C)NC5=O)n2)cn1

SMILES: CN(C)CCOc1ccc(-c2nc(-c3ccncc3)c(-c3ccc4c(c3)CC/C4=N\O)[nH]2)cc1
% of control [12]: 78%

SMILES: N#Cc1cccc(-c2c[nH]c3ncnc(N4CCOCC4)c23)c1
% of inhibition (Focal adhesion kinase 1): 11%

SMILES: O=C(NOC[C@H](O)CO)c1ccc(F)c(F)c1Nc1ccc(I)cc1F
% of control [13]: 84%
